Assay results from patent US7569351B2 (Oncotherapy Science, Inc., priority 2000, dated 2009).

Assays:
p53AIP1 [1] = assay: p53AIP1 expression after apoptosis stimulators (Western blotting, RT-PCR); format: cell-based, human; settings: MCF7 cells
Protocol: FIG. 15 presents photographs showing the expression of p53AIP1 through different apoptotic pathways, which was detected by Western blotting (A) and semiquantitative RT-PCR (B) analyses. MCF7 cells were collected at 36 hr after STS damage and 48 hr after UV or TNFα damage for Western blotting analysis, or 24 hr after STS damage, and 48 hr after UV or TNFα damage for RT-PCR. Expression of β-actin or β2MG serves as a control.
Cells were plated 24 hr before apoptosis-inducing treatment, and grown to 60%-70% confluency at the time of treatment. To test whether the expression of p53AIP1 in response to apoptotic stresses, MCF7 (breast carcinoma) cells were continuously incubated with staurosporine or TNFα, or were treated with UV at given dosages (J/m^2) using a UV cross-linker (Stratagene). […] The cells (2×10^4 or more) were analyzed in a flow cytometer (FACScalibur; Becton Dickinson) to determine the percentage of sub-G1 nuclei in the cell population. […]
For RT-PCR analysis, total RNA was first isolated from cells using the RNeasy spin column kit (QIAGEN) according to the manufacturer's instructions. cDNAs were synthesized from 5 μg of total RNA using SuperScript Pre-amplification System (GIBCO-BRL). The exponential phase was determined for RT-PCR within 15 cycles to 30 cycles to allow semiquantitative comparisons among cDNAs derived from identical reactants. […]

p53AIP1 [2] = assay: Immunocytochemical staining of endogenous p53AIP1 in mitochondria; format: cell-based, human; settings: MCF7; STS 0.5 μM 24 hr, TNFα 10 ng/ml 48 hr
From the text: (§1) FIG. 17 presents photographs showing the expression of p53AIP1 protein in the mitochondria, and the function of p53AIP1 protein in apoptosis induced by UV or STS. […] Twenty-four hours after STS and UV damage or 48 hr after TNFα damage, p53AIP1 protein and mitochondria in the cells were stained with FITC-conjugated rabbit anti-p53AIP1 antibody and Mito Tracker Red (CMXRos), respectively. The nuclei was visualized by DAPI staining. […] MCF7 cells were transfected with AS or sense oligonucleotides (SE) (1 μM) using Lipofectin reagent (GIBCO-BRL) for 4 hr, and then the cells were damaged by UV irradiation (50 J/m^2). Thirty-six hours after transfection, p53AIP1 expression was evaluated by Western blotting.
Incubation times and radiation doses were as follows: for RT-PCR, STS treatment was performed for 24 hr and TNFα and UV, for 48 hr; for Western blotting, STS, for 36 hr and TNFα and UV, for 48 hr; for FACS and TUNEL assays, STS (0.5 μM) and UV (50 J/m^2) for 36 hr and TNFα (10 ng/ml), for 72 hr; and for immunocytochemical analysis, STS (0.5 μM) and UV (50 J/m^2), for 24 hr and TNFα (10 ng/ml) for 48 hr.

p53AIP1 [3] = assay: Induction of endogenous p53AIP1 by DNA damage in NHDF (RT-PCR); format: cell-based, human; settings: adriamycin 0.2 μg/ml
Protocol: (§2) Expression of the GAPDH gene was determined as a quantity control. p53AIP1 and p21/WAF1 expression induced by γ irradiation (IR) and adriamycin treatment (ADR) is analyzed.
(§3) DNA-damaging treatment was performed as follows.
(§4) Cells were inoculated 24 hr before treatment, and grown to 60% to 70% confluency. NHDF and SW480 cells were continuously treated with adriamycin (doxorubicin) at a concentration of 0.2 μg/ml or were treated with γ-ray irradiation at about 1 Gy/min (14 Gy).

p21^Waf1 = assay: Induction of p21Waf1 by DNA damage in NHDF (RT-PCR); format: cell-based, human; settings: adriamycin 0.2 μg/ml
Protocol: as §2, §3, §4

p53AIP1 [4] = assay: Antisense inhibition of p53AIP1 expression (RT-PCR); format: cell-based, human; settings: U373MG, 1 μM oligonucleotide 4 hr, then Ad-p53, 48 hr
U373MG cells = assay: Antisense inhibition of p53-induced apoptosis (FACS); format: cell-based, human; settings: 1 μM oligonucleotide 4 hr, then Ad-p53, 48 hr
mitochondrial ΔΨm [5] = assay: Mitochondrial ΔΨm by Rhodamine 123 in HeLa mock parental cells; format: cell-based, human; settings: MOI 100 pfu/cell, 60 hr after infection
Protocol: (§5) The cells were labeled with Rhodamine 123 at 60 hr after infection, and fluorescence was analyzed by FACScan. The horizontal axis indicates 10^0 at left end, 10^4 at right end, and 10^2 at center, respectively.
(§6) Next, the mitochondrial ΔΨm itself was analyzed. Detection of mitochondrial membrane potential was performed as follows. […] Sixty hours after infection, adherent and floating cells were collected by trypisinization, and washed twice with cold PBS. Rhodamine 123 (10 nM) in PBS was added to the cells, and were incubated for 30 min at 37° C. Fluorescence was measured by flow cytometry.

p53AIP1 [6] = assay: Antisense inhibition of p53AIP1 expression in MCF7 (Western blotting); format: cell-based, human; settings: MCF7, AS 1 μM, after UV irradiation, compared with sense oligonucleotide
From the text: as §1
(§7) Next, the intracellular localization of endogenous p53AIP1 during apoptosis through different-pathways was identified. In human breast carcinoma cells MCF7 that were not exposed to any apoptosis stimulator, the expression of p53AIP1 was not detected. […] No staining of p53AIP1 was observed after TNFα treatment (FIG. 17). To confirm the involvement of p53AIP1 in apoptotic processes, experiments using an antisense oligonucleotide (AS) corresponding to the p53AIP1 gene were performed. […] After 36 hr from the treatment, apoptotic cells were analyzed by FACS and TUNEL analysis.

MCF7 cells = assay: Antisense effect on apoptosis in MCF7 (FACS sub-G1); format: cell-based, human; settings: MCF7, AS 1 μM
Protocol: MCF7 cells were transfected with AS or SE (1 μM) using Lipofectin reagent (GIBCO-BRL) for 4 hr, and treated with UV irradiation, STS or TNFα.
Cells were plated 24 hr before apoptosis-inducing treatment, and grown to 60%-70% confluency at the time of treatment. To test whether the expression of p53AIP1 in response to apoptotic stresses, MCF7 (breast carcinoma) cells were continuously incubated with staurosporine or TNFα, or were treated with UV at given dosages (J/m^2) using a UV cross-linker (Stratagene). Floating and adherent cells were collected, and subjected to analyses by Western blotting, FACS, and RT-PCR analysis. For FACS analysis, adherent and detached cells were combined and fixed with 75% ethanol at 4° C. After rinsed twice with PBS, cells were incubated at 37° C. for 30 min with 1 ml PBS containing boiled RNase. Cells were then stained in 1 ml PBS containing 10 μg of propidium iodide. The cells (2×10^4 or more) were analyzed in a flow cytometer (FACScalibur; Becton Dickinson) to determine the percentage of sub-G1 nuclei in the cell population. In situ terminal transferase-mediated dUTP nick end-labeling (TUNEL) was performed using Apoptag Direct (Oncor) according to the manufacturer's instructions.
as §7, with “performed. To inhibit endogenous p53AIP1 expression, antisense oligonucleotide (AS2: […]/SEQ ID NO: 30) and a control sense oligonucleotides (SE2: […]/SEQ ID NO: 31) were designed based on the sequence of the p53AIP1 gene, and then purified by HPLC.” for “performed.”

T98G cells = assay: TUNEL analysis after transfection of expression vectors; format: cell-based, human; settings: harvested 48 hr after transfection
Protocol: To investigate whether introduction of exogenous p53AIP1 could indeed induce apoptotic cell death, in situ terminal transferase-mediated dUTP nick end-labeling (TUNEL) analysis was performed. […] TUNEL analysis was performed using Apotag Direct ([…]) according to the manufacturer's instructions. […] DNA fragments were evaluated using the ApoAlert LM-PCR ladder assay kit (Clontech) according to the manufacturer's instructions.

mitochondrial ΔΨm [7] = assay: Mitochondrial membrane potential by Mitotracker Red CMXRos; format: cell-based; settings: 24 hr after transfection
Protocol: To evaluate the mitochondrial membrane potential, cells were incubated in culture media containing […] Mitotracker Red CMXRos (Molecular Probes) at 37° C. for 30 min, and then fixed to be labeled with a longer wavelength (579 nm to 599 nm) fluorescence emission.

mitochondrial ΔΨm [8] = assay: Mitochondrial ΔΨm by Rhodamine 123 in HeLa cells overexpressing bcl-2; format: cell-based, human; settings: both HeLa cell lines overexpressing bcl-2, 60 hr after infection
Protocol: as §5, §6

WTp53 cancer cell lines = assay: Anti-tumor effect in vitro, nine cancer cell lines containing wild-type p53; format: cell-based, human
Protocol: Apoptotic cells were analyzed by FACScan at 96 hr after infection.

## CN[C@@H]1C[C@H]2O[C@@](C)([C@@H]1OC)n1c3ccccc3c3c4c(c5c6ccccc6n2c5c31)C(=O)NC4 [STS, staurosporine]
p53AIP1 [1]
  expression of p53AIP1 during apoptotic induction: increased significantly in a dose-dependent manner
p53AIP1 [2]
  staining of p53AIP1 in the mitochondria: intense staining

## COc1cccc2c1C(=O)c1c(O)c3c(c(O)c1C2=O)C[C@@](O)(C(=O)CO)C[C@@H]3O[C@H]1C[C@H](N)[C@H](O)[C@H](C)O1 [adriamycin, adriamycin (doxorubicin)]
p53AIP1 [3]
  time of maximum levels of p53AIP1: 24 h
p21^Waf1
  time of maximum p21^Waf1 expression: 6 h

## GATCCCATCCAGGGGA (listed as DNA, chemistry not given here) [AS1]
p53AIP1 [4]
  inhibition of the induction of p53AIP1 expression: significantly inhibited
U373MG cells
  inhibition of the induction of p53-induced apoptosis: significantly inhibited

## GGAGGCAGGTGAGGAG (listed as DNA, chemistry not given here) [SE1, reference compound]
p53AIP1 [4]
  inhibition of the induction of p53AIP1 expression: not
U373MG cells
  inhibition of the induction of p53-induced apoptosis: not

## LacZ: exogenous LacZ expressed from Ad-LacZ, control [reference compound]
Mitochondrial ΔΨm [5]
  down-regulation of mitochondrial ΔΨm: did not

## TCCCCTGGATGGGATC (chemistry not given here) [AS2]
p53AIP1 [6]
  reduction in the p53AIP1 expression level: 50%
MCF7 cells; TNFα 10 ng/ml
  inhibition of cell death induced by TNFα: did not inhibit
MCF7 cells; reduced from 33%, after UV irradiation
  apoptotic (sub-G1) cell population, second pair: 16%
MCF7 cells; reduced from 37%, stimulus not clearly printed
  apoptotic (sub-G1) cell population, first pair: 28%

## TNFα
p53AIP1 [2]
  staining of p53AIP1 in the mitochondria: No staining

B1: p53AIP1α: p53-dependent apoptosis-associated protein, 124 amino acids, SEQ ID NO: 2, expressed from vector (protein, listed as Homo sapiens)
chain: MGSSSEASFRSAQASCSGARRQGLGRGDQNLSVMPPNGRAQTHTPGWVSDPLVLGAQVHGGCRGIEALSVSSGSWSSATVWILTGLGLGLSRPFLPGATVLRDRPLGSAFELSYDQKKAPLRLQ
T98G cells
  transfected T98G cells undergoing apoptosis (TUNEL): more than half
Mitochondrial ΔΨm [7]
  dissipation of mitochondrial ΔΨm: Almost all cells
Mitochondrial ΔΨm [5]
  down-regulation of mitochondrial ΔΨm: down-regulated
Mitochondrial ΔΨm [8]
  down-regulation of mitochondrial ΔΨm with bcl-2 overexpression: blocked

B2: p53AIP1: p53-regulated Apoptosis Inducing Protein 1, exogenous expression by adenovirus-mediated gene transfer (protein)
chain: MGSSSEASFRSAQASCSGARRQGLGRGDQNLSVMPPNGRAQTHTPGWVSDPLVLGAQVHGGCRGIEALSVSSGSWSSATVWILTGLGLGLSRPFLPGATVLRDRPLGSAFELSYDQKKAPLRLQ
modifications: left off: small tags and cut ends
notes: p53-regulated Apoptosis Inducing Protein 1, exogenous expression by adenovirus-mediated gene transfer
WTp53 cancer cell lines; nine lines tested, adenovirus-mediated gene transfer, 96 hr
  induction of apoptosis in WTp53 cancer cell lines: effectively induced apoptosis in six of the WTp53 cancer cell lines
WTp53 cancer cell lines; the six responsive WTp53 lines
  cell killing compared with p53: four of the six cell lines were killed more effectively
